What was measured:
[1] = target: T1, PDE9A (Homo sapiens, UniProt O76083); experiment: PDE enzyme activity assay (HTRF cGMP), PDE9A; type: biochemical; details: recombinant enzyme; read-out: PDE9A inhibition (IC50)
T1 construct: they are full-length with N-terminal GST tag; GST (N); purchased BPS Biosciences 60090; host or cells: baculovirus infected Sf9 cells

[2] = tested on: acetylated histone 3 at Lys9 (AcH3K9); experiment: HDAC activity using SHSY-5Y cell line (Western blot, histone 3 acetylation); type: cell-based, human; design: key: basal x1 means no increment (+); basal x1.4≤(++)<basal x2; basal x2≤(+++)<basal x3; basal x3≤(++++); N.E. means No Effect; details: SHSY-5Y cells, 24 hours, compound concentration 1 μM
Method: HDAC inhibition leads to the corresponding functional response, increase in AcH3 level. Therefore, the cellular assay to conclude HDAC activity was assessed by Western blot analysis using specific antibodies against acetylated histone 3 at Lys9 (AcH3K9). Cell cultures were treated at 100 nM, 500 nM, 1 μM and/or 5 μM with compounds of the invention or known PDE inhibitors during 24 hours and, Table 1 (below) describes the functional activity: histone 3 acetylation level (AcH3) vs basal (no treatment).
A human neuroblastoma cell line (SHSY-5Y) was used. Cell line was obtained from ATCC (CRL-2266) and cultured in 35 mm plates (Becton Dickinson, NJ).
The cells were grown to 90% confluence at 37° C. in an atmosphere of 5% CO2 and in Dulbecco's modified Eagle's medium supplemented with Glutamax (Gibco, Invitrogen, CA), 100 units/ml penicillin/streptomycin, 1×MEM nonessential amino acids and 10% fetal bovine serum (Gibco, Invitrogen, CA).
Cells were collected and sonicated in a buffer containing a cold lysis buffer with protease inhibitors (0.2 M NaCl, 0.1 M HEPES (4-(2-hydroxyethyl)-1-piperazineethanesulfonic acid), 10% glycerol, 200 mM NaF, 2 mM Na4P2O7, 5 mM EDTA (ethylenediaminetetraacetic acid), 1 mM EGTA (ethylene glycol tetraacetic acid), 2 mM DTT (dithiothreitol), 0.5 mM PMSF (phenylmethylsulfonyl fluoride), 1 mM Na3VO4 and Complete Protease Inhibitor Cocktail, Roche Diagnostics), centrifuged at 14,000×g 4° C. for 20 min and the supernatant was aliquoted and stored at −80° C. Total protein concentrations were determined using the BioRad Bradford protein assay (BioRad Laboratories).
Protein samples were mixed with Laemmli sample buffer, resolved onto Sodium Dodecyl Sulfate (SDS)-polyacrylamide gels and transferred to nitrocellulose membrane. The membranes were blocked with 5% milk, 0.05% Tween-20 in PBS (Phosphate-Buffered Saline) or TBS (Tris-Buffered Saline) followed by overnight incubation with the following primary antibodies: rabbit polyclonal anti-acetylated Histone 3 (acetyl K9) (Cell Signalling Technology), rabbit polyclonal anti-total Histone 3 (Millipore), in the corresponding buffer. All the antibodies were used at 1:1000 dilution except the mouse monoclonal anti-β-actin which was used at 1:50.000. Following two washes in TBS/Tween20 and one wash in TBS alone, immunolabeled protein bands were detected by using HRP-conjugated anti-rabbit or anti-mouse antibody (Santa Cruz Biotechnology; dilution 1:5.000) following an enhanced chemiluminescence system (ECL, GE Healthcare Bioscience, Buckinghamshire, UK), and autoradiographic exposure to HyperfilmtECL (GE Healthcare Bioscience). Quantity One™ software v.4.6.3 (Bio-Rad) was used for quantification.

[3] = tested on: phosphorylated tau (p-Tau); experiment: AD-related markers in Tg2576 neurons: pTau; type: cell-based, mouse; details: Mus musculus, Primary neuron, references, read-out: pTau EC50 (50% decrease in pTau levels over basal)
Method: The effects of the compounds on amyloid pathology were analysed in primary cultures after 21 days in-vitro (DIV) of neurons derived from the hippocampus and cortex of Tg2576 mouse embryos. Tg2576 mice express the human 695-aa isoform of APP (hAPP) containing the Swedish double mutation, which favours A3 production. Neurons were treated for two days and collected at day 3, 24 h after the last treatment. First it was analysed the effect of the compounds on hAPP processing by the amyloidogenic pathway by measuring the carboxyl terminal fragment AβPP (C99), which is the precursor of Aβ42. […]
It was next analyzed the effect of the compounds on levels of phosphorylated tau (p-Tau) in the same samples, another marker of AD, using a phospho-specific antibody (AT8) that recognizes hyperphosphorylated epitopes on Ser202/Thr205. […]
To analyze APP-derived fragments and p-Tau levels in primary neuronal cultures, cells were collected in a buffer containing SDS (2%), Tris-HCl (10 mM, pH 7.4), protease inhibitors (1 mM phenylmethylsulfonyl fluoride (PMSF) and Complete Protease Inhibitor Cocktail: Roche Diagnostics) and phosphatase inhibitors (0.1 mM Na3VO4 and 1 mM NaF). […] Aliquots of the supernatant were frozen at […] and their protein concentrations determined by the Bradford method using the Bio-Rad protein assay (Bio-Rad, Hercules, Calif., USA). […]

[4] = tested on: pCREB; experiment: In-vivo pCREB in hippocampus of wild type mice; design: key: basal x1 means no increment (+); basal x1.4≤(++)<basal x2; basal x2≤(+++)<basal x3; basal x3≤(++++); N.E. means No Effect
Method: (§1) Another group of animals received the vehicle (1/1/8, v:v:v, DMSO/Tween 20/saline). One hour later, mice were sacrificed by cervical dislocation and their hippocampus was quickly dissected from the brains. Total tissue homogenates were obtained by homogenizing the hippocampus in a cold lysis buffer with protease inhibitors (0.2 M NaCl, 0.1 M HEPES, 10% glycerol, 200 mM NaF, 2 mM Na4P2O7, 5 mM EDTA, 1 mM EGTA, 2 mM DTT, 0.5 mM PMSF, 1 mM Na3VO4 and Complete Protease Inhibitor Cocktail, Roche Diagnostics). The homogenate was then centrifuged at 14,000×g at 4° C. for 20 min and the supernatant aliquoted and stored at −80° C. Total protein concentrations were determined using the BioRad Bradford protein assay (BioRad Laboratories). Protein samples were analyzed as described in the “in vitro” section.

[5] = tested on: AcH3; experiment: In-vivo AcH3 in hippocampus of wild type mice; design: key: basal x1 means no increment (+); basal x1.4≤(++)<basal x2; basal x2≤(+++)<basal x3; basal x3≤(++++); N.E. means No Effect
Method: as §1

[6] = tested on: pTau; experiment: AD-related markers in Tg2576 mice: pTau; type: in vivo; details: hippocampal homogenates, footnote: single dose of 1 mg/Kg i.p.
[7] = target: T2, PDE5A1 (Homo sapiens, UniProt O76074); experiment: PDE enzyme activity assay (HTRF cGMP), PDE5A; type: biochemical; details: recombinant enzyme; read-out: PDE5A1 inhibition (IC50)
T2 construct: they are full-length with N-terminal GST tag; GST (N); purchased BPS Biosciences 60050; host or cells: baculovirus infected Sf9 cells

T1 sequence (O76083 1-533 isoform O76083-2): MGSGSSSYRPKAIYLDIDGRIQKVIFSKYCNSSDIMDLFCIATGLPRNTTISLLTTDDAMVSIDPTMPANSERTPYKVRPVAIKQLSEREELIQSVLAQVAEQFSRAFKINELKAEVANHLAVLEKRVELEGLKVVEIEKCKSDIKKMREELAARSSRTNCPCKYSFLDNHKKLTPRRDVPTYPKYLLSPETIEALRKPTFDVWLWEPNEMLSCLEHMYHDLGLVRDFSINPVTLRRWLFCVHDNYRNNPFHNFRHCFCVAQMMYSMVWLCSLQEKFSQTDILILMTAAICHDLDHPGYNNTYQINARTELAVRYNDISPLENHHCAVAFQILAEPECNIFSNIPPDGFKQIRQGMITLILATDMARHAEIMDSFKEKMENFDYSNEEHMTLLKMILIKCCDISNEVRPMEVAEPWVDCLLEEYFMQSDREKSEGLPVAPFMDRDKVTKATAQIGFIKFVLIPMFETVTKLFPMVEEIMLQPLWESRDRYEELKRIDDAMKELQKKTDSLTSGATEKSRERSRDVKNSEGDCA

Row | Structure (SMILES) | IC50 [1] | IC50 [7] | AcH3: increment in Histone 3 acetylation level vs basal [2] | also measured
1 | C[C@@H]1CN(Cc2ccc(C(=O)Nc3ccccc3N)cc2)C[C@H]1c1nc2c(cnn2C2CCCC2)c(=O)[nH]1 (racemic) [Example 3-01, N-(2-aminophenyl)-4-[[(3S,4S)-3-(1-cyclopentyl-4-oxo-5H-pyrazolo[3,4-d]pyrimidin-6-yl)-4-methyl-pyrrolidin-1-yl]methyl] benzamide] | 0.01 to 1 µM |  | ++ (basal x1.4≤(++)<basal x2) | 
2 | O=C(CCCCCCC(=O)Nc1ccccc1)NO [Vorinostat] | > 10 µM | > 10 µM | ++++ (basal x3≤(++++)) | pCREB increment vs basal ([4]; single dose of 12.5 mg/Kg i.p.): N.E.; AcH3 increment vs basal ([5]; single dose of 12.5 mg/Kg i.p.): +++ (basal x2≤(+++)<basal x3)
3 | CCCc1nn(C)c2c(=O)[nH]c(-c3cc(S(=O)(=O)NC4CCN(c5ncc(C(=O)Nc6ccccc6N)cn5)CC4)ccc3OCC)nc12 [Example 1-02] |  | 0.01 to 1 µM | +++ (basal x2≤(+++)<basal x3) | 
4 | CCCc1nn(C)c2c(=O)[nH]c(-c3cc(Cc4ccc(C(=O)Nc5ccccc5N)s4)ccc3OCC)nc12 [Example 1-08] |  | 0.01 to 1 µM | ++++ (basal x3≤(++++)) | 
5 | CCCc1nn(C)c2c(=O)[nH]c(-c3cc(C4CCC(C(=O)Nc5ccccc5N)CC4)ccc3OCC)nc12 (racemic) [Example 1-05, N-(2-aminophenyl)-4-[4-ethoxy-3-(1-methyl-7-oxo-3-propyl-6H-pyrazolo[4,3-d]pyrimidin-5-yl)phenyl]cyclohexanecarboxamide] |  | 0.01 to 1 µM | +++ (basal x2≤(+++)<basal x3) | 
6 | CCCc1nn(C)c2c(=O)[nH]c(-c3cc(Cc4ccc(C(=O)N5CCNC(=O)C5)cc4)ccc3OCC)nc12 [Example 1-19] |  | 0.01 to 1 µM | ++ (basal x1.4≤(++)<basal x2) | 

Further lines, with some results ahead:

Row | IC50 [1] | IC50 [7] | Structure (SMILES) | AcH3: increment in Histone 3 acetylation level vs basal [2] | also measured
7 | > 10 µM |  | CN1CC(=O)N2[C@H](c3ccc4c(c3)OCO4)c3[nH]c4ccccc4c3C[C@@H]2C1=O [Tadalafil] | N.E. | EC50 [3]: 0.01 to 1 µM; pCREB increment vs basal ([4]; single dose of 1 mg/Kg i.p.): +++ (basal x2≤(+++)<basal x3); AcH3 increment vs basal ([5]; single dose of 1 mg/Kg i.p.): N.E.; pTau biological response vs basal [6]: +++ (basal x2≤(+++)<basal x3)
8 |  | 0.01 to 1 µM | CCCc1nn(C)c2c(=O)[nH]c(-c3cc(CC4CC(C(=O)Nc5ccccc5N)C4)ccc3OCC)nc12 (racemic) [Example 1-04, N-(2-aminophenyl)-3-[[4-ethoxy-3-(1-methyl-7-oxo-3-propyl-6H-pyrazolo[4,3-d]pyrimidin-5-yl)phenyl]methyl]cyclobutanecarboxamide] | ++++ (basal x3≤(++++)) | 
9 |  | 0.01 to 1 µM | CCCc1nc(C)c2c(=O)[nH]c(-c3cc(Cc4ccc(C(=O)Nc5cscc5N)cc4)ccc3OCC)nn12 [Example 2-07, N-(4-amino-3-thienyl)-4-[[4-ethoxy-3-(5-methyl-4-oxo-7-propyl-3H-imidazo[5,1-f][1,2,4]triazin-2-yl)phenyl]methyl]benzamide] | ++ (basal x1.4≤(++)<basal x2) | 
